{
  "source": "paper PMC5940854",
  "about": "“Nitrothiophene carboxamides, a novel narrow spectrum antibacterial series: Mechanism of action and Efficacy” (Scientific Reports, 2018)",
  "format_in_all_cases": "cell-based",
  "key": {"[1]": {"system": "E. coli bcr knockout strain", "experiment": "MIC, efflux pump knockout bcr", "settings": "Escherichia coli, read-out: MIC bcr", "procedure": "(§1) The inoculum used for all the experiments is derived from a single seed lot that is maintained as glycerol stocks at −80 °C and are sub cultured on LB plate for isolated colonies. Single colony of each strain is grown in M9 medium. All test compound stocks and dilutions are prepared in DMSO. Serial two-fold dilutions of compounds are prepared separately, with the concentrations ranging from 2 mg/mL to 0.015 mg/mL. To 150 µl (3–7 × 10^5 CFU/ml) of bacterial culture in 96 well microtitre plates, 3 μL compound from each of the dilutions is added to respective wells to obtain final concentrations ranging from 40 µg/mL to 0.3 µg/mL of the test compounds. Media control, culture control and appropriate reference drug controls are included. […] Growth is monitored by checking absorbance at 600 nm (A600). […] The samples from MIC and above concentrations are plated for MBC (Minimum Bactericidal Concentration). The samples are diluted 1:10 and plated on LB agar plates. […] The killing kinetics is determined by enumerating survivors at various time points following compound exposure. E. coli cells (~10^7 CFU/ml; A600 of 0.1) are treated with various concentrations (40 µg/mL to 0.3 µg/mL) of compounds in a 96-well microtitre plate. […] Data is expressed as the log10 CFU for each drug treatment."}, "[2]": {"system": "E. coli acrF knockout strain", "experiment": "MIC, efflux pump knockout acrF", "settings": "Escherichia coli, read-out: MIC acrF", "procedure": "as §1"}, "[3]": {"system": "E. coli yciM knockout strain", "experiment": "MIC, efflux pump knockout yciM", "settings": "Escherichia coli, read-out: MIC yciM", "procedure": "as §1"}, "[4]": {"system": "E. coli emrB knockout strain", "experiment": "MIC, efflux pump knockout emrB", "settings": "Escherichia coli, read-out: MIC emrB", "procedure": "as §1"}, "[5]": {"system": "E. coli mdtL knockout strain", "experiment": "MIC, efflux pump knockout mdtL", "settings": "Escherichia coli, read-out: MIC mdtL", "procedure": "as §1"}, "[6]": {"system": "E. coli hsrA knockout strain", "experiment": "MIC, efflux pump knockout hsrA", "settings": "Escherichia coli, read-out: MIC hsrA", "procedure": "as §1"}, "E. coli ∆tolC JW5503-1": {"system": "E. coli ∆tolC JW5503-1", "experiment": "MIC, E. coli ∆tolC", "settings": "Escherichia coli, read-out: MIC tolC", "procedure": "as §1, with “plate. At various time intervals (0 to 8 h), 30 μl volumes of treated cultures are serially diluted and plated on LB agar plates.” for “plate.”"}, "[7]": {"system": "E. coli macB knockout strain", "experiment": "MIC, efflux pump knockout macB", "settings": "Escherichia coli, read-out: MIC macB", "procedure": "as §1"}, "[8]": {"system": "E. coli emrE knockout strain", "experiment": "MIC, efflux pump knockout emrE", "settings": "Escherichia coli, read-out: MIC emrE", "procedure": "as §1"}, "[9]": {"system": "E. coli emrY knockout strain", "experiment": "MIC, efflux pump knockout emrY", "settings": "Escherichia coli, read-out: MIC emrY", "procedure": "as §1"}, "[10]": {"system": "E. coli acrD knockout strain", "experiment": "MIC, efflux pump knockout acrD", "settings": "Escherichia coli, read-out: MIC acrD", "procedure": "as §1"}, "[11]": {"system": "E. coli mdtB knockout strain", "experiment": "MIC, efflux pump knockout mdtB", "settings": "Escherichia coli, read-out: MIC mdtB", "procedure": "as §1"}, "[12]": {"system": "E. coli acrZ knockout strain", "experiment": "MIC, efflux pump knockout acrZ", "settings": "Escherichia coli, read-out: MIC acrZ", "procedure": "as §1"}, "[13]": {"system": "E. coli mdtK knockout strain", "experiment": "MIC, efflux pump knockout mdtK", "settings": "Escherichia coli, read-out: MIC mdtK", "procedure": "as §1"}, "E. coli ∆acrB JW0451-2": {"system": "E. coli ∆acrB JW0451-2", "experiment": "MIC, E. coli ∆acrB", "settings": "Escherichia coli, read-out: MIC acrB", "procedure": "as §1, with “plate. At various time intervals (0 to 8 h), 30 μl volumes of treated cultures are serially diluted and plated on LB agar plates.” for “plate.”"}, "[14]": {"system": "E. coli mdtG knockout strain", "experiment": "MIC, efflux pump knockout mdtG", "settings": "Escherichia coli, read-out: MIC mdtG", "procedure": "as §1"}, "[15]": {"system": "wild-type E. coli CGSC#7636 (BW25113)", "experiment": "MIC, wild-type E. coli", "settings": "Escherichia coli, BW25113, E. coli WT BW25113; read-out: MIC WT", "procedure": "as §1, with “plate. At various time intervals (0 to 8 h), 30 μl volumes of treated cultures are serially diluted and plated on LB agar plates.” for “plate.”"}, "[16]": {"system": "E. coli mdfA knockout strain", "experiment": "MIC, efflux pump knockout mdfA", "settings": "Escherichia coli, read-out: MIC mdfA", "procedure": "as §1"}},
  "data": [
    {"smiles": "CN(C)[C@@H]1C(O)=C(C(N)=O)C(=O)[C@@]2(O)C(O)=C3C(=O)c4c(O)cccc4[C@@](C)(O)[C@H]3C[C@@H]12", "note": "[tetracycline, reference compound]", "values": [
      {"measurement": "MIC", "setting": "[1]", "value": 1.2, "unit": "µg/mL"},
      {"measurement": "MIC", "setting": "[2]", "value": 1.2, "unit": "µg/mL"},
      {"measurement": "MIC", "setting": "[3]", "value": 1.2, "unit": "µg/mL"},
      {"measurement": "MIC", "setting": "[4]", "value": 1.2, "unit": "µg/mL"},
      {"measurement": "MIC", "setting": "[5]", "value": 1.2, "unit": "µg/mL"},
      {"measurement": "MIC", "setting": "[6]", "value": 1.2, "unit": "µg/mL"},
      {"measurement": "MIC", "setting": "E. coli ∆tolC JW5503-1", "value": 0.3, "unit": "µg/mL"},
      {"measurement": "MIC", "setting": "[7]", "value": 1.2, "unit": "µg/mL"},
      {"measurement": "MIC", "setting": "[8]", "value": 1.2, "unit": "µg/mL"},
      {"measurement": "MIC", "setting": "[9]", "value": 1.2, "unit": "µg/mL"},
      {"measurement": "MIC", "setting": "[10]", "value": 1.2, "unit": "µg/mL"},
      {"measurement": "MIC", "setting": "[11]", "value": 1.2, "unit": "µg/mL"},
      {"measurement": "MIC", "setting": "[12]", "value": 1.2, "unit": "µg/mL"},
      {"measurement": "MIC", "setting": "[13]", "value": 1.2, "unit": "µg/mL"},
      {"measurement": "MIC", "setting": "E. coli ∆acrB JW0451-2", "value": 0.3, "unit": "µg/mL"},
      {"measurement": "MIC", "setting": "[14]", "value": 1.2, "unit": "µg/mL"},
      {"measurement": "MIC", "setting": "[15]", "value": 1.2, "unit": "µg/mL"},
      {"measurement": "MIC", "setting": "[16]", "value": 1.2, "unit": "µg/mL"}
    ]}
  ]
}
